Measured values: patent publication US20240158446A1, “CYCLIC COMPOUND HAVING SELECTIVE INHIBITORY ACTION ON KRAS OVER HRAS AND NRAS” (CHUGAI SEIYAKU KABUSHIKI KAISHA, priority 2021, published 2024)
*1 amine or outer side, *2 acyl side, *3 side chain or, on linkers, in order; H or OH if unused. Where a SMILES comes first, the peptide text is derived from it. Bridges are numbered along the chain shown (N, C = ends). [ ]: non-standard residue; d: D form. The star is where a group is joined. hPhe(3-Cl-4-CF3) = N[C@@H](CCc1ccc(C(F)(F)F)c(Cl)c1)C(=O)O; NPrPhe(4-CF3) = CCCN[C@@H](Cc1ccc(C(F)(F)F)cc1)C(=O)O; NEtAsp = CCN([C@@H](CC(=O)[*:3])C(=O)[*:2])[*:1]; NMeGly(cPent) = CN[C@H](C(=O)O)C1CCCC1; NMeNva = CCC[C@H](NC)C(=O)O; Morpholide = C1CN(*)CCO1; NMeA = CN[C@@H](C)C(=O)O; Aze = O=C(O)[C@@H]1CCN1; Ac4c = NC1(C(=O)O)CCC1; Sar = CNCC(=O)O

What was measured:
[1] = target: GDP-bound KRAS wild-type protein (Homo sapiens, UniProt P01116); assay: Binding to KRAS by surface plasmon resonance (SPR), Single Cycle Kinetics; settings: SPR, Single Cycle Kinetics, GDP-bound KRAS wild-type protein; read-out: KRAS KD
[2] = tested on: human lung cancer strain NCI-H441; assay: cells; settings: NCI-H441, 96 h, read-out: NCI-H441 IC50 (nM), NCI-H441 cell proliferation, 4 days, CellTiter-Glo;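 further: cell proliferation inhibition after four days measured by CellTiter-Glo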
[3] = target: GDP-bound NRAS wild-type protein (Homo sapiens, UniProt P01111); assay: Binding to NRAS by surface plasmon resonance (SPR), Single Cycle Kinetics; settings: ratio of KD for GDP-bound NRAS wild-type protein to KD for KRAS, SPR
[4] = target: GDP-bound HRAS wild-type protein (Homo sapiens, UniProt P01112); assay: Binding to HRAS by surface plasmon resonance (SPR), Single Cycle Kinetics; settings: ratio of KD for GDP-bound HRAS wild-type protein to KD for KRAS, SPR
Chain of GDP-bound HRAS wild-type protein (P01112 whole entry): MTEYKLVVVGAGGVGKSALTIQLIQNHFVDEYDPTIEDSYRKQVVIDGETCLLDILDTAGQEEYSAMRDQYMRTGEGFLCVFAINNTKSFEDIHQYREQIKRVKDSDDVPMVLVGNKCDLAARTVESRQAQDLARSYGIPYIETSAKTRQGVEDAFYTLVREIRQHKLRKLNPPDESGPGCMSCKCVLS

Chain of GDP-bound NRAS wild-type protein (P01111 whole entry): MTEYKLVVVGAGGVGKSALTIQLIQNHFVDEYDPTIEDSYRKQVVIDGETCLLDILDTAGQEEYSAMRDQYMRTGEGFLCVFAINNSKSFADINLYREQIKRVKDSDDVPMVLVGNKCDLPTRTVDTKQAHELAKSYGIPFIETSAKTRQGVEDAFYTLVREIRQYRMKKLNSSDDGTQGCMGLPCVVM
Chain of GDP-bound KRAS wild-type protein (P01116 whole entry): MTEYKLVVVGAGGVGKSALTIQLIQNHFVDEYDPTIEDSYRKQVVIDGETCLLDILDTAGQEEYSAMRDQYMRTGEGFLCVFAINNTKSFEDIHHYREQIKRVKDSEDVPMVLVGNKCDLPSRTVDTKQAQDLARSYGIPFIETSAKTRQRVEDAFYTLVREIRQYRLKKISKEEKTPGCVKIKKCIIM

Row | SMILES | Kd [1] [nM] | IC50 [2] [nM] | NRAS/KRAS (KD ratio) [3] | HRAS/KRAS (KD ratio) [4]
1 | CC[C@H](C)[C@@H]1NC(=O)[C@H](CC)N(C)C(=O)C[C@@H](C(=O)N(C)CC)N(C)C(=O)[C@H](C2CCCC2)N(C)C(=O)C2(CC(C)(C)C2)NC(=O)[C@@H]2C[C@H](C)CN2C(=O)[C@H](CCc2cc(F)c(C(F)(F)F)c(F)c2)NC(=O)CN(C)C(=O)[C@H](Cc2ccc(C)cc2)N2CC/C=C\C[C@@H](C2=O)N(C)C(=O)CN(C)C1=O [PP1882] | 0.12 | 20.2 | – | –
2 | CCC[C@H]1C(=O)N[C@@H]([C@@H](C)CC)C(=O)N(C)[C@@H](C)C(=O)N2CC[C@H]2C(=O)N(CCC)[C@@H](Cc2ccc(C(F)(F)F)cc2)C(=O)N(C)CC(=O)N[C@@H](CCc2ccc(C(F)(F)F)c(Cl)c2)C(=O)N2CCC[C@H]2C(=O)NC2(CCC2)C(=O)N(C)[C@@H](C2CCCC2)C(=O)N(CC)[C@H](C(=O)N2CCOCC2)CC(=O)N1C [PP1955] ([NMeNva]I[NMeA][Aze][NPrPhe(4-CF3)][Sar][hPhe(3-Cl-4-CF3)]P[Ac4c][NMeGly(cPent)][NEtAsp]-Morpholide; lactam N-11) | 0.82 | 4.4 | C (A compound having a KD ratio of 0.1 or more and less than 3 is denoted as C) | B (a compound having 3 or more and less than 10 is denoted as B)
3 | CC[C@H](C)[C@@H]1NC(=O)[C@H](CC(C)C)N(C)C(=O)C[C@@H](C(=O)N(C)CC)N(C)C(=O)[C@H](C2CCCC2)N(C)C(=O)C2(CC(C)(C)C2)NC(=O)[C@@H]2C[C@@H](C)CN2C(=O)[C@H](CCc2ccc(C(F)(F)F)c(OC)c2)NC(=O)CN(C)C(=O)[C@H](Cc2ccc(C)cc2)N2CC/C=C\C[C@@H](C2=O)N(C)C(=O)CN(C)C1=O [PP1909] | 0.34 | 15.3 | A (a compound having 10 or more and less than 20 is denoted as A) | B (a compound having 3 or more and less than 10 is denoted as B)
4 | CC[C@H](C)[C@@H]1NC(=O)[C@H](CC2CC2)N(C)C(=O)C[C@@H](C(=O)N(C)CC)N(C)C(=O)[C@H](C2CCCC2)N(C)C(=O)C2(CCC2)NC(=O)[C@@H]2C[C@@H](C)CN2C(=O)[C@H](CCc2ccc(C(F)(F)F)c(OC)c2)NC(=O)CN(C)C(=O)[C@H](Cc2ccc(C)cc2)N2CC/C=C\C[C@@H](C2=O)N(C)C(=O)CN(C)C1=O [PP1900] | 0.17 | 24.7 | – | –
5 | CCO[C@@H]1C[C@H]2C(=O)NC3(CC(C)(C)C3)C(=O)N(C)[C@@H](C3CCCC3)C(=O)N(C)[C@H](C(=O)N(C)CC)CC(=O)N(C)[C@@H](C3CCC3)C(=O)N[C@@H]([C@@H](C)CC)C(=O)N(C)CC(=O)N(C)[C@H]3C/C=C\CCN(C3=O)[C@@H](Cc3ccc(C(F)(F)F)cc3)C(=O)N(C)CC(=O)N[C@@H](CCc3ccc(C(F)(F)F)c(OC)c3)C(=O)N2C1 [PP1985] | 0.23 | 17.7 | – | B (a compound having 3 or more and less than 10 is denoted as B)
6 | CCC[C@H]1C(=O)N[C@@H]([C@@H](C)CC)C(=O)N(C)CC(=O)N(C)[C@H]2C/C=C\CCN(C2=O)[C@@H](Cc2ccc(C)cc2)C(=O)N(C)CC(=O)N[C@@H](CCc2cc(F)c(C(F)(F)F)c(F)c2)C(=O)N2C[C@@H](C)C[C@H]2C(=O)NC2(CCC2)C(=O)N(C)[C@@H](C2CCCC2)C(=O)N(C)[C@H](C(=O)N(C)CC)CC(=O)N1C [PP1860] | – | 10.3 | A (a compound having 10 or more and less than 20 is denoted as A) | A (a compound having 10 or more and less than 20 is denoted as A)
7 | CCCOC[C@H]1C(=O)N[C@@H]([C@@H](C)CC)C(=O)N(C)CC(=O)N(C)[C@H]2C/C=C\CCN(C2=O)[C@@H](Cc2ccc(C(F)(F)F)cc2)C(=O)N(C)CC(=O)N[C@@H](CCc2ccc(C(F)(F)F)c(OC)c2)C(=O)N2C[C@H](OCC)C[C@H]2C(=O)NC2(CCC2)C(=O)N(C)[C@@H](C2CCCC2)C(=O)N(C)[C@H](C(=O)N(C)CCC)CC(=O)N1C [PP2017] | – | 2.5 | A (a compound having 10 or more and less than 20 is denoted as A) | A (a compound having 10 or more and less than 20 is denoted as A)
8 | CC[C@H](C)[C@@H]1NC(=O)[C@H](CC(F)F)N(C)C(=O)C[C@@H](C(=O)N(C)C)N(C)C(=O)[C@H](C2CCCC2)N(C)C(=O)C2(CC(C)(C)C2)NC(=O)[C@@H]2C[C@H](C)CN2C(=O)[C@H](CCc2ccc(C(F)(F)F)c(OC)c2)NC(=O)CN(C)C(=O)[C@H](Cc2ccc(C)cc2)N2CC/C=C\C[C@@H](C2=O)N(C)C(=O)CN(C)C1=O [PP1875] | 0.083 | 7.7 | – | –
9 | CCC[C@H]1C(=O)N[C@@H]([C@@H](C)CC)C(=O)N(C)CC(=O)N(C)[C@H]2C/C=C\CCN(C2=O)[C@@H](Cc2ccc(C)cc2)C(=O)N(C)CC(=O)N[C@@H](CCc2ccc(C(F)(F)F)c(OC)c2)C(=O)N2C[C@H](C)C[C@H]2C(=O)NC2(CCC2)C(=O)N(C)[C@@H](C2CCCC2)C(=O)N(C)[C@H](C(=O)N(C)C)CC(=O)N1C [PP1859] | – | 28.8 | A (a compound having 10 or more and less than 20 is denoted as A) | A (a compound having 10 or more and less than 20 is denoted as A)
10 | CC[C@H](C)[C@@H]1NC(=O)[C@H](CC2CC2)N(C)C(=O)C[C@@H](C(=O)N(C)C)N(C)C(=O)[C@H](C2CCCC2)N(C)C(=O)C2(CCC2)N(C)C(=O)[C@@H]2CCCN2C(=O)[C@H](CCc2cc(F)c(C(F)(F)F)c(F)c2)NC(=O)CN(C)C(=O)[C@H](Cc2ccc(C)cc2)N2CC/C=C\C[C@@H](C2=O)N(C)C(=O)CN(C)C1=O [PP1796] | – | 5.3 | A (a compound having 10 or more and less than 20 is denoted as A) | B (a compound having 3 or more and less than 10 is denoted as B)
11 | CCO[C@@H]1C[C@H]2C(=O)NC3(CCC3)C(=O)N(C)[C@@H](C(CC)CC)C(=O)N(C)[C@H](C3CCC3)CC(=O)N(C)[C@@H](CC3CC3)C(=O)N[C@@H]([C@@H](C)CC)C(=O)N(C)CC(=O)N(C)[C@H]3C/C=C\CCN(C3=O)[C@@H](Cc3ccc(C(F)(F)F)cc3)C(=O)N(C)CC(=O)N[C@@H](CCc3cc(F)c(C(F)(F)F)c(F)c3)C(=O)N2C1 [PP1636] | – | 95.2 | A (a compound having 10 or more and less than 20 is denoted as A) | A (a compound having 10 or more and less than 20 is denoted as A)
12 | CCO[C@@H]1C[C@H]2C(=O)NC3(CCC3)C(=O)N(C)[C@@H](C3CCCC3)C(=O)N(C)[C@H](C(=O)N(C)CC)CC(=O)N(C)[C@@H](CC3CCC3)C(=O)N[C@@H]([C@@H](C)CC)C(=O)N(C)CC(=O)N(C)[C@H]3C/C=C\CCN(C3=O)[C@@H](Cc3ccc(C(F)(F)F)cc3)C(=O)N(C)CC(=O)N[C@@H](CCc3cc(F)c(C(F)(F)F)c(F)c3)C(=O)N2C1 [PP1667] | – | 2 | A (a compound having 10 or more and less than 20 is denoted as A) | A (a compound having 10 or more and less than 20 is denoted as A)
13 | CC[C@H](C)[C@@H]1NC(=O)[C@H](CC2CC2)N(C)C(=O)C[C@@H](C(=O)N(C)C)N(C)C(=O)[C@H](C2CCCC2)N(C)C(=O)C2(CCC2)N(C)C(=O)[C@@H]2C[C@@H](C)CN2C(=O)[C@H](CCc2cc(F)c(C(F)(F)F)c(F)c2)NC(=O)CN(C)C(=O)[C@H](Cc2ccc(C)cc2)N2CC/C=C\C[C@@H](C2=O)N(C)C(=O)CN(C)C1=O [PP1800] | – | 6.5 | A (a compound having 10 or more and less than 20 is denoted as A) | A (a compound having 10 or more and less than 20 is denoted as A)
14 | CCC[C@H]1C(=O)N[C@@H]([C@@H](C)CC)C(=O)N(C)CC(=O)N(C)[C@H]2C/C=C\CCN(C2=O)[C@@H](Cc2ccc(C)cc2)C(=O)N(C)CC(=O)N[C@@H](CCc2ccc(C(F)(F)F)c(Cl)c2)C(=O)N2C[C@@H](C)C[C@H]2C(=O)NC2(CCC2)C(=O)N(C)[C@@H](C2CCCC2)C(=O)N(C)[C@H](C(=O)N(C)CC)CC(=O)N1C [PP1848] | 0.11 | 22.5 | – | –
15 | CC[C@H](C)[C@@H]1NC(=O)[C@H](CC2CC2)N(C)C(=O)C[C@@H](C(=O)N(C)C)N(C)C(=O)[C@H](C2CCCC2)N(C)C(=O)C2(CCC2)NC(=O)[C@@H]2C[C@H](C)CN2C(=O)[C@H](CCc2ccc(C(F)(F)F)c(OC)c2)NC(=O)CN(C)C(=O)[C@H](Cc2ccc(C)cc2)N2CC/C=C\C[C@@H](C2=O)N(C)C(=O)CN(C)C1=O [PP1861] | – | 25.7 | A (a compound having 10 or more and less than 20 is denoted as A) | B (a compound having 3 or more and less than 10 is denoted as B)
16 | CCC[C@H]1C(=O)N[C@@H]([C@@H](C)CC)C(=O)N(C)CC(=O)N(C)[C@H]2C/C=C\CCN(C2=O)[C@@H](Cc2ccc(C)cc2)C(=O)N(C)CC(=O)N[C@@H](CCc2ccc(C(F)(F)F)c(OC)c2)C(=O)N2C[C@@H](C)C[C@H]2C(=O)NC2(CCC2)C(=O)N(C)[C@@H](C2CCCC2)C(=O)N(C)[C@H](C(=O)N(C)C)CC(=O)N1C [PP1857] | – | 5 | A (a compound having 10 or more and less than 20 is denoted as A) | B (a compound having 3 or more and less than 10 is denoted as B)
17 | CC[C@H](C)[C@@H]1NC(=O)[C@H](C2CC2)N(C)C(=O)C[C@@H](C(=O)N(C)CC)N(C)C(=O)[C@H](C2CCCC2)N(C)C(=O)C2(CC(C)(C)C2)NC(=O)[C@@H]2C[C@H](C)CN2C(=O)[C@H](CCc2cc(F)c(C(F)(F)F)c(F)c2)NC(=O)CN(C)C(=O)[C@H](Cc2ccc(C(F)(F)F)cc2)N2CC/C=C\C[C@@H](C2=O)N(C)C(=O)CN(C)C1=O [PP1980] | – | 30.1 | A (a compound having 10 or more and less than 20 is denoted as A) | B (a compound having 3 or more and less than 10 is denoted as B)
